Laboratory results published in patent publication US6670446B1, “N1 modified glycopeptides” (Eli Lilly and Company, priority 1998, dated 2003).

How the values were obtained:
Format in all cases: cell-based
[1] = system: Resistant Enterococcus faecium and faecalis; test: MIC, standard broth micro-dilution assay, Resistant; settings: geometric mean of 4-6 isolates
Method: (§1) The antibacterial efficacy of the present compounds is illustrated by Table III. The minimal inhibitory concentrations (MICs) were determined using a standard broth micro-dilution assay.

[2] = system: Sensitive Enterococcus faecium and faecalis; test: MIC, standard broth micro-dilution assay, Sensitive; settings: geometric mean of 4-6 isolates
Method: as §1

[3] = system: Staphylococcus aureus 446; test: MIC, standard broth micro-dilution assay, SA 446
Method: as §1

[4] = system: Staphylococcus aureus 489; test: MIC, standard broth micro-dilution assay, SA 489
Method: as §1

[5] = system: Staphylococcus aureus 447; test: MIC, standard broth micro-dilution assay, SA 447
Method: as §1

[6] = system: Staphylococcus aureus X400; test: MIC, standard broth micro-dilution assay, SA X400
Method: as §1

[7] = system: Staphylococcus aureus X778; test: MIC, standard broth micro-dilution assay, SA X778
Method: as §1

[8] = system: Staphylococcus aureus 491; test: MIC, standard broth micro-dilution assay, SA 491
Method: as §1

[9] = system: Staphylococcus aureus S13E
Method: as §1

[10] = system: Staphylococcus aureus SA1199; test: MIC, standard broth micro-dilution assay, SA 1199
Method: as §1

[11] = system: Staphylococcus aureus SA1199A; test: MIC, standard broth micro-dilution assay, SA 1199A
Method: as §1

[12] = system: Staphylococcus haemolyticus 105; test: MIC, standard broth micro-dilution assay, SH 105
Method: as §1

[13] = system: Staphylococcus haemolyticus 415; test: MIC, standard broth micro-dilution assay, SH 415
Method: as §1

[14] = system: Staphylococcus epidermidis 270; test: MIC, standard broth micro-dilution assay, SE 270
Method: as §1

Enterococcus faecium 180 = test: MIC, standard broth micro-dilution assay, EF 180
Method: as §1

[15] = system: Enterococcus faecium 180-1; test: MIC, standard broth micro-dilution assay, EF 180-1
Method: as §1

[16] = system: Enterococcus faecalis 2041; test: MIC, standard broth micro-dilution assay, EF 2041
Method: as §1

[17] = system: Enterococcus faecalis 276; test: MIC, standard broth micro-dilution assay, EF 276
Method: as §1

[18] = system: Enterococcus gallinarum 245; test: MIC, standard broth micro-dilution assay, EG 245
Method: as §1

[19] = system: Haemophilus influenzae RD; test: MIC, standard broth micro-dilution assay, HFRD
Method: as §1

Escherichia coli EC14 = test: MIC, standard broth micro-dilution assay, EC 14
Method: as §1

## CC1OC(OC2c3ccc(c(Cl)c3)Oc3cc4cc(c3OC3OC(CO)C(O)C(O)C3OC3CC(C)(NCc5ccc(-c6ccccc6)cc5)C(O)C(C)O3)Oc3ccc(cc3Cl)C(O)C(NC(=O)C3CCCN3C(=O)OC(C)(C)C)C(=O)NC(CC(N)=O)C(=O)NC4C(=O)NC3C(=O)NC2C(=O)NC(C(=O)O)c2cc(O)cc(O)c2-c2cc3ccc2O)CC(C)(N)C1O [Example 26, N^1-(N-BOC-D-proline) derivative of N^DISACCC-(p-phenylbenzyl)desleucylA82846B]
[1]
  minimal inhibitory concentration (MIC), Resistant: 23
[2]
  minimal inhibitory concentration (MIC), Sensitive: 0.76
[3]
  minimal inhibitory concentration (MIC), SA 446: 2
[4]
  minimal inhibitory concentration (MIC), SA 489: 0.5
[5]
  minimal inhibitory concentration (MIC), SA 447: 1
[6]
  minimal inhibitory concentration (MIC), SA X400: 0.5
[7]
  minimal inhibitory concentration (MIC), SA X778: 0.5
[8]
  minimal inhibitory concentration (MIC), SA 491: ≦.06
[9]
  minimal inhibitory concentration (MIC), SA S13E: 1
[10]
  minimal inhibitory concentration (MIC), SA 1199: 1
[11]
  minimal inhibitory concentration (MIC), SA 1199A: 0.125
[12]
  minimal inhibitory concentration (MIC), SH 105: 1
[13]
  minimal inhibitory concentration (MIC), SH 415: 2
[14]
  minimal inhibitory concentration (MIC), SE 270: 0.25
Enterococcus faecium 180
  minimal inhibitory concentration (MIC), EF 180: 4
[15]
  minimal inhibitory concentration (MIC), EF 180-1: ≦.06
[16]
  minimal inhibitory concentration (MIC), EF 2041: 0.25
[17]
  minimal inhibitory concentration (MIC), EF 276: 1
[18]
  minimal inhibitory concentration (MIC), EG 245: 0.5
[19]
  minimal inhibitory concentration (MIC), HFRD: >64
Escherichia coli EC14
  minimal inhibitory concentration (MIC), EC 14: >64

## CC(C)CC(N)C(=O)NC1C(=O)NC(CC(N)=O)C(=O)NC2C(=O)NC3C(=O)NC(C(=O)NC(C(=O)O)c4cc(O)cc(O)c4-c4cc3ccc4O)C(OC3CC(C)(N)C(O)C(C)O3)c3ccc(c(Cl)c3)Oc3cc2cc(c3OC2OC(CO)C(O)C(O)C2OC2CC(C)(NCc3ccc(-c4ccccc4)cc3)C(O)C(C)O2)Oc2ccc(cc2Cl)C1O [Example 27, N^1-L-leucine derivative of N^DISACC-(p-phenylbenzyl)desleucylA82846B]
[1]
  minimal inhibitory concentration (MIC), Resistant: 16
[2]
  minimal inhibitory concentration (MIC), Sensitive: 1
[3]
  minimal inhibitory concentration (MIC), SA 446: 2
[4]
  minimal inhibitory concentration (MIC), SA 489: 4
[5]
  minimal inhibitory concentration (MIC), SA 447: 1
[6]
  minimal inhibitory concentration (MIC), SA X400: 2
[7]
  minimal inhibitory concentration (MIC), SA X778: 1
[8]
  minimal inhibitory concentration (MIC), SA 491: 1
[9]
  minimal inhibitory concentration (MIC), SA S13E: 2
[10]
  minimal inhibitory concentration (MIC), SA 1199: 1
[11]
  minimal inhibitory concentration (MIC), SA 1199A: 0.5
[12]
  minimal inhibitory concentration (MIC), SH 105: 0.125
[13]
  minimal inhibitory concentration (MIC), SH 415: 2
[14]
  minimal inhibitory concentration (MIC), SE 270: 0.25
Enterococcus faecium 180
  minimal inhibitory concentration (MIC), EF 180: 4
[15]
  minimal inhibitory concentration (MIC), EF 180-1: 0.25
[16]
  minimal inhibitory concentration (MIC), EF 2041: 1
[17]
  minimal inhibitory concentration (MIC), EF 276: 1
[18]
  minimal inhibitory concentration (MIC), EG 245: 0.5
[19]
  minimal inhibitory concentration (MIC), HFRD: 64
Escherichia coli EC14
  minimal inhibitory concentration (MIC), EC 14: >64

## CC1OC(OC2c3ccc(c(Cl)c3)Oc3cc4cc(c3OC3OC(CO)C(O)C(O)C3OC3CC(C)(NCc5ccc(-c6ccccc6)cc5)C(O)C(C)O3)Oc3ccc(cc3Cl)C(O)C(NC(=O)C(Cc3ccc(Cl)cc3)NC(=O)OC(C)(C)C)C(=O)NC(CC(N)=O)C(=O)NC4C(=O)NC3C(=O)NC2C(=O)NC(C(=O)O)c2cc(O)cc(O)c2-c2cc3ccc2O)CC(C)(N)C1O [Example 28, N^1-[N-BOC-L-3-(p-chlorophenyl)alanine] derivative of N^DISACC-(p-phenylbenzyl)desleucylA82846B]
[1]
  minimal inhibitory concentration (MIC), Resistant: 13
[2]
  minimal inhibitory concentration (MIC), Sensitive: 1.7
[3]
  minimal inhibitory concentration (MIC), SA 446: 4
[4]
  minimal inhibitory concentration (MIC), SA 489: 1
[5]
  minimal inhibitory concentration (MIC), SA 447: 2
[6]
  minimal inhibitory concentration (MIC), SA X400: 2
[7]
  minimal inhibitory concentration (MIC), SA X778: 1
[8]
  minimal inhibitory concentration (MIC), SA 491: 2
[9]
  minimal inhibitory concentration (MIC), SA S13E: 2
[10]
  minimal inhibitory concentration (MIC), SA 1199: 2
[11]
  minimal inhibitory concentration (MIC), SA 1199A: 1
[12]
  minimal inhibitory concentration (MIC), SH 105: 2
[13]
  minimal inhibitory concentration (MIC), SH 415: 4
[14]
  minimal inhibitory concentration (MIC), SE 270: 1
Enterococcus faecium 180
  minimal inhibitory concentration (MIC), EF 180: 2
[15]
  minimal inhibitory concentration (MIC), EF 180-1: 0.5
[16]
  minimal inhibitory concentration (MIC), EF 2041: 2
[17]
  minimal inhibitory concentration (MIC), EF 276: 1
[18]
  minimal inhibitory concentration (MIC), EG 245: 2
[19]
  minimal inhibitory concentration (MIC), HFRD: >64
Escherichia coli EC14
  minimal inhibitory concentration (MIC), EC 14: >64

## CC1OC(OC2c3ccc(c(Cl)c3)Oc3cc4cc(c3OC3OC(CO)C(O)C(O)C3OC3CC(C)(NCc5ccc(-c6ccccc6)cc5)C(O)C(C)O3)Oc3ccc(cc3Cl)C(O)C(NC(=O)C3CCCN3C(=O)OC(C)(C)C)C(=O)NC(CC(N)=O)C(=O)NC4C(=O)NC3C(=O)NC2C(=O)NC(C(=O)O)c2cc(O)cc(O)c2-c2cc3ccc2O)CC(C)(N)C1O [Example 29, N^1-(N-BOC-L-proline) derivative of N^DISACC-(p-phenylbenzyl)desleucylA82846B]
[1]
  minimal inhibitory concentration (MIC), Resistant: 27
[2]
  minimal inhibitory concentration (MIC), Sensitive: 1.2
[3]
  minimal inhibitory concentration (MIC), SA 446: 2
[4]
  minimal inhibitory concentration (MIC), SA 489: 0.25
[5]
  minimal inhibitory concentration (MIC), SA 447: 0.5
[6]
  minimal inhibitory concentration (MIC), SA X400: 0.25
[7]
  minimal inhibitory concentration (MIC), SA X778: 0.125
[8]
  minimal inhibitory concentration (MIC), SA 491: ≦.06
[9]
  minimal inhibitory concentration (MIC), SA S13E: 0.5
[10]
  minimal inhibitory concentration (MIC), SA 1199: 0.125
[11]
  minimal inhibitory concentration (MIC), SA 1199A: ≦.06
[12]
  minimal inhibitory concentration (MIC), SH 105: 0.125
[13]
  minimal inhibitory concentration (MIC), SH 415: 0.5
[14]
  minimal inhibitory concentration (MIC), SE 270: ≦.06
Enterococcus faecium 180
  minimal inhibitory concentration (MIC), EF 180: 4
[15]
  minimal inhibitory concentration (MIC), EF 180-1: ≦.06
[16]
  minimal inhibitory concentration (MIC), EF 2041: 0.125
[17]
  minimal inhibitory concentration (MIC), EF 276: 0.25
[18]
  minimal inhibitory concentration (MIC), EG 245: 2
[19]
  minimal inhibitory concentration (MIC), HFRD: >64
Escherichia coli EC14
  minimal inhibitory concentration (MIC), EC 14: >64

## CC1OC(OC2c3ccc(c(Cl)c3)Oc3cc4cc(c3OC3OC(CO)C(O)C(O)C3OC3CC(C)(NCc5ccc(-c6ccccc6)cc5)C(O)C(C)O3)Oc3ccc(cc3Cl)C(O)C(NC(=O)C(CCCCNC(=O)OC(C)(C)C)NC(=O)OC(C)(C)C)C(=O)NC(CC(N)=O)C(=O)NC4C(=O)NC3C(=O)NC2C(=O)NC(C(=O)O)c2cc(O)cc(O)c2-c2cc3ccc2O)CC(C)(N)C1O [Example 30, N^1-(N,N′-DIBOC-L-lysine) derivative of N^DISACC-(p-phenylbenzyl)desleucylA82846B]
[1]
  minimal inhibitory concentration (MIC), Resistant: 38
[2]
  minimal inhibitory concentration (MIC), Sensitive: 2.3
[3]
  minimal inhibitory concentration (MIC), SA 446: 8
[4]
  minimal inhibitory concentration (MIC), SA 489: 1
[5]
  minimal inhibitory concentration (MIC), SA 447: 2
[6]
  minimal inhibitory concentration (MIC), SA X400: 2
[7]
  minimal inhibitory concentration (MIC), SA X778: 1
[8]
  minimal inhibitory concentration (MIC), SA 491: 2
[9]
  minimal inhibitory concentration (MIC), SA S13E: 2
[10]
  minimal inhibitory concentration (MIC), SA 1199: 2
[11]
  minimal inhibitory concentration (MIC), SA 1199A: 1
[12]
  minimal inhibitory concentration (MIC), SH 105: 2
[13]
  minimal inhibitory concentration (MIC), SH 415: 2
[14]
  minimal inhibitory concentration (MIC), SE 270: 1
Enterococcus faecium 180
  minimal inhibitory concentration (MIC), EF 180: 8
[15]
  minimal inhibitory concentration (MIC), EF 180-1: 0.5
[16]
  minimal inhibitory concentration (MIC), EF 2041: 1
[17]
  minimal inhibitory concentration (MIC), EF 276: 2
[18]
  minimal inhibitory concentration (MIC), EG 245: 2
[19]
  minimal inhibitory concentration (MIC), HFRD: >64
Escherichia coli EC14
  minimal inhibitory concentration (MIC), EC 14: >64
